The values below come from patent US12637472B2, “Benzimidazole heteroatom-containing spiro compound and medicinal use thereof” (Changzhi University, priority 2023, dated 2026).

What all share (assay type): cell-based
Experiment [1] concerns Human liver tumor cells HepG2. Description: MTT in vitro cell proliferation inhibition experiment, HepG2. Particulars: Homo sapiens, MTT method, 48 h contact between compound and cell, read-out: Antiproliferative activity (IC50, μM) HepG2. As to the method: (§1) Human liver tumor cells HepG2, human colon cancer cells HCT116, and human gastric adenocarcinoma cells AGS were purchased from the Institute of Basic Medical Sciences, Chinese Academy of Medical Sciences. The cells each were preserved and passaged in the laboratory of the present disclosure according to respective cultivation data. Each cell line was routinely inoculated in a 50 mL cell culture flask, and cultivated with a 10% fetal bovine serum-containing DMEM/IRP-1640 medium at 37° C., 5% CO2, and 100% humidity, where the medium was changed daily. When growing to a confluency of 80% to 90%, cells were digested with a mixture of trypsin and EDTA and passaged according to 1:3.
(§2) An in vitro cell activity and proliferation inhibition experiment was conducted by an MTT method to investigate an impact of a target compound on a survival activity of each cell. Cells at a logarithmic growth phase were inoculated at 5×10^3 cells (100 μL)/well in a 96-well culture plate and cultivated for 24 h, and then compound solutions with different concentrations prepared in advance were added (100 μL) to the plate. At least 3 replicate wells were set for each concentration. A solvent control group without a compound and a blank control group without a cell were set. Edge wells each were filled with 200 μL of sterilized water. […] A liquid in each well was completely removed carefully, 150 μL of DMSO was added to each well, the plate was gently shaken on a microshaker for 10 min to make a purple crystal fully dissolved, and then an absorbance value was determined at 570 nm by a microplate reader. With a cell viability of the solvent control group without a compound as 100%, a cell survival rate was calculated as follows: a cell survival rate=(an absorbance value of a compound group−an absorbance value of the blank control group)/(an absorbance value of the control group−an absorbance value of the blank control group)×100%. A half-maximal inhibitory concentration (IC50) of a compound for a cell was calculated by the Graphpad Prism 5 software.
For orientation: Tetrazolium assays rely on reduction of a dye to a coloured formazan, in cell work by metabolically active cells.

Experiment [2] has as its system human colon cancer cells HCT116. Nature of the experiment: MTT in vitro cell proliferation inhibition experiment, HCT116. The conditions noted are these: Homo sapiens, HCT-116, MTT method, 48 h contact between compound and cell, read-out: Antiproliferative activity (IC50, μM) HCT116. As for the experimental part: as §1, §2
Experiment [3] deals with human gastric adenocarcinoma cells AGS. Description: MTT in vitro cell proliferation inhibition experiment, AGS. The conditions noted are these: Homo sapiens, MTT method, 48 h contact between compound and cell, read-out: Antiproliferative activity (IC50, μM) AGS. As for the experimental part:
as §1, §2

For orientation: IC50 means the concentration that inhibits the measured activity by half. Take `CCOc1ccc(C2C(C(C)CC)NC3(C(=O)c4ccccc4C3=O)C2C(=O)c2nc3ccccc3[nH]2)cc1` (stereo not drawn) [Compound 23, 3-(1H-benzimidazol-2-carbonyl)-5-sec-butyl-4-(4-ethoxyphenyl)spiro[inden-2,2′-pyrrolidine]-1,3-dione]: the IC50 was 8.78 µM in experiment [1], 9.67 µM in experiment [2] and 45.8 µM in experiment [3].

In the case of `CCC(C)C1NC2(C(=O)c3ccccc3C2=O)C(C(=O)c2nc3ccccc3[nH]2)C1c1ccc(Br)cc1` (stereo not drawn) [Compound 24, 3-(1H-benzimidazol-2-carbonyl)-4-(4-bromophenyl)-5-sec-butylspiro[inden-2,2′-pyrrolidine]-1,3-dione], the values for the IC50 in experiment [1], in experiment [2] and in experiment [3] were 67.8 µM, 45.8 µM and 3.67 µM, respectively.

For the compound `CC(C)C1NC2(C(=O)c3ccccc3C2=O)C(C(=O)c2nc3ccccc3[nH]2)C1C1CCCCC1` (stereo not drawn) [Compound 25, 3-(1H-benzimidazol-2-carbonyl)-4-cyclohexyl-5-isopropylspiro[inden-2,2′-pyrrolidine]-1,3-dione], the IC50 turned out to be 9.67 µM in experiment [1], 5.67 µM in experiment [2] and 12.4 µM in experiment [3].

As for `CC(C)C1NC2(C(=O)c3ccccc3C2=O)C(C(=O)c2nc3ccccc3[nH]2)C1c1ccc(Cl)c(F)c1` (stereo not drawn) [Compound 26, 3-(1H-benzimidazol-2-carbonyl)-4-(3-fluoro-4-chlorophenyl)-5-isopropylspiro[inden-2,2′-pyrrolidine]-1,3-dione], the IC50 in experiment [1] was above 100 µM; in experiment [2], 79 µM; in experiment [3] it was 60 µM.

With `CC(C)C1NC2(C(=O)c3ccccc3C2=O)C(C(=O)c2nc3ccccc3[nH]2)C1c1ccc(Cl)cc1` (stereo not drawn) [Compound 27, 3-(1H-benzimidazol-2-carbonyl)-4-(4-chlorophenyl)-5-isopropylspiro[inden-2,2′-pyrrolidine]-1,3-dione], the results for the IC50 in experiment [1], in experiment [2] and in experiment [3] were above 100 µM, above 100 µM and 90.1 µM, respectively.

Regarding `Cc1ccc(C2C(C(C)C)NC3(C(=O)c4ccccc4C3=O)C2C(=O)c2nc3ccccc3[nH]2)cc1` (stereo not drawn) [Compound 28, 3-(1H-benzimidazol-2-carbonyl)-5-isopropyl-4-p-tolylspiro[inden-2,2′-pyrrolidine]-1,3-dione], the IC50 in experiment [1] was 3.45 µM; in experiment [2], 4.56 µM; in experiment [3], 2.98 µM.

On to `CCOc1ccc(C2C(C(C)C)NC3(C(=O)c4ccccc4C3=O)C2C(=O)c2nc3ccccc3[nH]2)cc1OCC` (stereo not drawn) [Compound 29, 3-(1H-benzimidazol-2-carbonyl)-3,4-diethoxyphenyl-5-isopropylspiro[inden-2,2′-pyrrolidine]-1,3-dione], for which the figures for the IC50 in experiment [1], in experiment [2] and in experiment [3] were 44.6 µM, 53.2 µM and 67.1 µM, respectively.

Take `CC(C)C1NC2(C(=O)c3ccccc3C2=O)C(C(=O)c2nc3ccccc3[nH]2)C1c1cccc(Br)c1` (stereo not drawn) [Compound 30, 3-(1H-benzimidazol-2-carbonyl)-4-(3-bromophenyl)-5-isopropylspiro[inden-2,2′-pyrrolidine]-1,3-dione]: the IC50 turned out to be 2.34 µM in experiment [1], 3.42 µM in experiment [2] and 2.98 µM in experiment [3].

Regarding `CCOc1ccc(C2C(C(C)C)NC3(C(=O)c4ccccc4C3=O)C2C(=O)c2nc3ccccc3[nH]2)cc1` (stereo not drawn) [Compound 31, 3-(1H-benzimidazol-2-carbonyl)-4-(4-ethoxyphenyl)-5-isopropylspiro[inden-2,2′-pyrrolidine]-1,3-dione], the IC50 came out at 44.6 µM in experiment [1], 56.4 µM in experiment [2] and 59.9 µM in experiment [3].

`CC(C)C1NC2(C(=O)c3ccccc3C2=O)C(C(=O)c2nc3ccccc3[nH]2)C1c1ccc(Br)cc1` (stereo not drawn) [Compound 32, 3-(1H-benzimidazol-2-carbonyl)-4-(4-bromophenyl)-5-isopropylspiro[inden-2,2′-pyrrolidine]-1,3-dione]: the IC50 in experiment [1] is 66.7 µM; in experiment [2], above 100 µM; in experiment [3], above 100 µM.

`CSCCC1NC2(C(=O)c3ccccc3C2=O)C(C(=O)c2nc3ccccc3[nH]2)C1C1CCCCC1` (stereo not drawn) [Compound 33, 3-(1H-benzimidazol-2-carbonyl)-4-cyclohexyl-5-(methylthio)ethylspiro[inden-2,2′-pyrrolidine]-1,3-dione]: the IC50 was 12.5 µM in experiment [1], 15.5 µM in experiment [2] and 9.77 µM in experiment [3].

Consider `CSCCC1NC2(C(=O)c3ccccc3C2=O)C(C(=O)c2nc3ccccc3[nH]2)C1c1ccc(Cl)c(F)c1` (stereo not drawn) [Compound 34, 3-(1H-benzimidazol-2-carbonyl)-4-(4-chloro-3-fluorophenyl)-5-(2-methylthio)ethylspiro[inden-2,2′-pyrrolidine]-1,3-dione], for which the figures for the IC50 in experiment [1], in experiment [2] and in experiment [3] were 36.6 µM, 44.7 µM and 39.7 µM, respectively.

Turning to `CSCCC1NC2(C(=O)c3ccccc3C2=O)C(C(=O)c2nc3ccccc3[nH]2)C1c1ccc(Cl)cc1` (stereo not drawn) [Compound 35, 3-(1H-benzimidazol-2-carbonyl)-4-(4-chlorophenyl)-5-(2-methylthio)ethylspiro[inden-2,2′-pyrrolidine]-1,3-dione], the values for the IC50 in experiment [1], in experiment [2] and in experiment [3] were 40.5 µM, 42.7 µM and 45.8 µM, respectively.

For the compound `CSCCC1NC2(C(=O)c3ccccc3C2=O)C(C(=O)c2nc3ccccc3[nH]2)C1c1ccc(C)cc1` (stereo not drawn) [Compound 36, 3-(1H-benzimidazol-2-carbonyl)-5-(2-methylthio)ethyl-4-p-tolylspiro[inden-2,2′-pyrrolidine]-1,3-dione], the IC50 in experiment [1] came out at 13.5 µM; in experiment [2], 15.5 µM; in experiment [3], 9.78 µM.

On to `CCOc1ccc(C2C(CCSC)NC3(C(=O)c4ccccc4C3=O)C2C(=O)c2nc3ccccc3[nH]2)cc1OCC` (stereo not drawn) [Compound 37, 3-(1H-benzimidazol-2-carbonyl)-3,4-diethoxyphenyl-5-(2-methylthio)ethylspiro[inden-2,2′-pyrrolidine]-1,3-dione], for which the IC50 in experiment [1] is above 100 µM; in experiment [2], above 100 µM; in experiment [3], 78.6 µM.

On to `CSCCC1NC2(C(=O)c3ccccc3C2=O)C(C(=O)c2nc3ccccc3[nH]2)C1c1cccc(Br)c1` (stereo not drawn) [Compound 38, 3-(1H-benzimidazol-2-carbonyl)-4-(3-bromophenyl)-5-(2-methylthio)ethylspiro[inden-2,2′-pyrrolidine]-1,3-dione], for which the IC50 in experiment [1] stood at 49.8 µM; in experiment [2] it was 47.4 µM; in experiment [3], 40.9 µM.

`CCOc1ccc(C2C(CCSC)NC3(C(=O)c4ccccc4C3=O)C2C(=O)c2nc3ccccc3[nH]2)cc1` (stereo not drawn) [Compound 39, 3-(1H-benzimidazol-2-carbonyl)-4-(4-ethoxyphenyl)-5-(2-methylthio)ethylspiro[inden-2,2′-pyrrolidine]-1,3-dione]: the concentration for half-maximal inhibition (IC50) in experiment [1], in experiment [2] and in experiment [3] was above 100 µM throughout.

In the case of `CSCCC1NC2(C(=O)c3ccccc3C2=O)C(C(=O)c2nc3ccccc3[nH]2)C1c1ccc(Br)cc1` (stereo not drawn) [Compound 40, 3-(1H-benzimidazol-2-carbonyl)-4-(4-bromophenyl)-5-(2-methylthio)ethylspiro[inden-2,2′-pyrrolidine]-1,3-dione], the figures for the IC50 in experiment [1], in experiment [2] and in experiment [3] were 9.56 µM, 56.7 µM and 66.2 µM, respectively.

Turning to `O=C(c1nc2ccccc2[nH]1)C1C(C2CCCCC2)C(c2c[nH]c3ccccc23)NC12C(=O)c1ccccc1C2=O` (stereo not drawn) [Compound 41, 3-(1H-benzimidazol-2-carbonyl)-4-cyclohexyl-5-(1H-indol-3-yl)spiro[inden-2,2′-pyrrolidine]-1,3-dione], the IC50 in experiment [1] was found to be 89.6 µM; in experiment [2] it was 77.4 µM; in experiment [3] it was 82.3 µM.

As to `O=C(c1nc2ccccc2[nH]1)C1C(c2ccc(Cl)c(F)c2)C(c2c[nH]c3ccccc23)NC12C(=O)c1ccccc1C2=O` (stereo not drawn) [Compound 42, 3-(1H-benzimidazol-2-carbonyl)-4-(4-chloro-3-fluorophenyl)-5-(1H-indol-3-yl)spiro[inden-2,2′-pyrrolidine]-1,3-dione], the IC50 was determined as 3.45 µM in experiment [1], 4.78 µM in experiment [2] and 3.01 µM in experiment [3].

In the case of `O=C(c1nc2ccccc2[nH]1)C1C(c2ccc(Cl)cc2)C(c2c[nH]c3ccccc23)NC12C(=O)c1ccccc1C2=O` (stereo not drawn) [Compound 43, 3-(1H-benzimidazol-2-carbonyl)-4-(4-chlorophenyl)-5-(1H-indol-3-yl)spiro[inden-2,2′-pyrrolidine]-1,3-dione], the IC50 in experiment [1] was found to be 34.6 µM; in experiment [2], 55.5 µM; in experiment [3] it was 39.7 µM.
